Measured values: US12478623B2 (INTRA-CELLULAR THERAPIES, INC., priority 2019, dated 2025)

Key:
Male Wistar rats = test: Conditioned avoidance response (CAR) test, Example 1; format: in vivo, rat; conditions: for Suppression of CAR: 20 minutes; for Treatment effect in CAR: FIG. 2
[1] = tested on: pyramidal cells in rat mPFC slices; conditions: lumateperone alone; cited from earlier work
[2] = tested on: patients with acute exacerbated schizophrenia; conditions: 60 mg P.O. once daily for up to 28 days, vs placebo; cited from earlier work
[3] = tested on: mTOR pathway, including protein kinase Akt and p70S6 kinase; conditions: cited from earlier work
schizophrenic patients = conditions: cited from earlier work
social defeat model = conditions: in vivo; cited from earlier work
[4] = schizophrenia with co-morbid depression

Row | Compound | Suppression of CAR (Male Wistar rats; risperidone 0.4 mg/kg i.p., vs vehicle, FIG. 1) | Treatment effect in CAR (Male Wistar rats; risperidone 0.4 mg/kg i.p., 90 minutes) | NMDA and AMPA receptor-induced currents [1] | Symptoms of emotional experience [2] | Phosphorylation of mTOR pathway proteins [3] | Depressive symptoms (schizophrenic patients; [4]) | Safety profile (schizophrenic patients; [4]) | Social functioning, positive and negative symptoms, cognition (schizophrenic patients; schizophrenic patients, at a low striatal D2 receptor occupancy) | Effect in the social defeat model (social defeat model) | Suppression of CAR (Male Wistar rats; lumateperone 7 mg/kg i.p. (saline), vs vehicle/saline, FIG. 3) | CAR, comparison between groups (Male Wistar rats; lumateperone 7 mg/kg, 90 minutes, vs lumateperone 3 mg/kg/saline, FIG. 4) | Suppression of CAR (Male Wistar rats; lumateperone tosylate 3 mg/kg i.p., vs vehicle, FIG. 1) | Suppression of CAR (Male Wistar rats; lumateperone tosylate 10 mg/kg i.p., vs vehicle, FIG. 1) | Treatment effect in CAR (Male Wistar rats; lumateperone tosylate 10 mg/kg i.p., 90 minutes)
1 | Cc1nc2n(c(=O)c1CCN1CCC(c3noc4cc(F)ccc34)CC1)CCCC2 [risperidone] | significantly suppressed CAR compared to vehicle | not for the other doses or for risperidone | – | – | – | – | – | – | – | – | – | – | – | –
2 | CN1CCN2c3c(cccc31)[C@@H]1CN(CCCC(=O)c3ccc(F)cc3)CC[C@@H]12 [lumateperone, 4-((6bR,10aS)-3-methyl-2,3,6b,9,10,10a-hexahydro-1H-pyrido[3′,4′: 4,5]pyrrolo[1,2,3-de]quinoxalin-8(7H)-yl)-1-(4-fluorophenyl)-1-butanone] | – | – | activates both NMDA and AMPA receptor-induced currents | significant and unexpected improvement in symptoms of emotional experience compared to placebo | increases phosphorylation of key proteins in the mTOR pathway | improves the depressive symptoms | placebo-level safety profile and no metabolic changes or extra-pyramidal side effects | significantly improve social functioning, positive and negative symptoms, as well as impaired cognition | antidepressant-like effects | significantly suppressed CAR compared to vehicle/saline | significantly different than lumateperone (3 mg/kg)/saline | significantly suppressed CAR compared to vehicle | significantly suppressed CAR compared to vehicle | significant treatment effect
